Test results taken from the NIST ThermoML archive (doi:10.1021/acs.jced.5b00152).

Conditions: Liquid; for viscosity: Capillary tube (Ostwald / Ubbelohde) method; for mass density: Vibrating tube method

CCCCCCCO [heptan-1-ol]
Conditions	mass density, 298.15 K [kg/m3]	mass density, 323.15 K [kg/m3]	viscosity, 298.15 K [mPa·s]	viscosity, 323.15 K [mPa·s]
2002 kPa	819.81	–	5.986	–
2006 kPa	–	802.09	–	2.779
3999 kPa	821.2	–	6.11	–
4003 kPa	–	803.5	–	2.832
6000 kPa	–	804.98	–	2.887
6006 kPa	822.3	–	6.233	–
7993 kPa	–	806.39	–	2.942
8000 kPa	823.7	–	6.359	–
10000 kPa	–	807.79	–	3
10002 kPa	824.8	–	6.487	–
12997 kPa	826.41	–	6.683	–
13006 kPa	–	809.85	–	3.085
15999 kPa	828.31	–	6.883	–
16007 kPa	–	811.88	–	3.173
18995 kPa	831.3	–	7.086	–
19004 kPa	–	813.79	–	3.263
22001 kPa	833.2	–	7.297	–
22008 kPa	–	815.68	–	3.354
25000 kPa	835.1	–	7.511	–
25007 kPa	–	817.57	–	3.446
